From patent US6914045B2, “Glycopeptide antibiotics” (Wyeth Holdings Corporation, priority 2001, dated 2005)
In brackets after ≈: the same amount, converted by molar mass.

Assays:
Test in all cases: in vitro antibacterial evaluation, MIC by broth dilution
Type in all cases: cell-based
Conditions in all cases: broth dilution, 18 hours at 35° C.
Escherichia coli = tested on: Escherichia coli
In short: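 Broth dilution MIC per NCCLS M7-A2 in Mueller-Hinton II medium, inoculum 5×10^5 CFU/mL, antibiotic range 64-0.06 μg/mL. MIC taken as lowest concentration inhibiting growth.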

Streptococcus sp. = tested on: Streptococcus sp.
In short: (§1)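 Broth dilution per NCCLS M7-A2 in Mueller-Hinton II medium, inoculum 5×10^5 CFU/mL, antibiotic range 64-0.06 μg/mL. MIC taken as lowest concentration inhibiting growth; Gram-positive panel includes recent clinical isolates resistant to methicillin, penicillin and/or vancomycin.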

Enterococcus sp. = tested on: Enterococcus sp.
In short: as §1

Staphylococcus sp. = tested on: Staphylococcus sp.
In short: as §1

## COc1ccc(Oc2cccc(-c3nc4cc(CC5NC(=O)C(C(C)c6ccccc6)NC(=O)CNC(=O)C(CO)NC(=O)C(C(O)C6CNC(=N)N6C6OC(CO)C(O)C(O)C6O)NC(=O)C(C(O)C6CNC(=N)N6)NC5=O)ccc4o3)c2)cc1 (stereo not drawn) [Example 35, Cyclo[3-[2-[3-(4-methoxyphenoxy)phenyl]-1,3-benzoxazol-5-yl]alanyl-3-(2-iminoimidazolidin-4-yl)seryl-3-(3-hexopyranosyl-2-iminoimidazolidin-4-yl)serylserylglycyl-β-methylphenyl-alanyl]]
Escherichia coli; strain ATCC 25922
  MIC Escherichia coli (ATCC 25922): >128 µg/mL
Escherichia coli; strain GC 4559
  MIC Escherichia coli (GC 4559): >128 µg/mL
Escherichia coli; strain GC 4560
  MIC Escherichia coli (GC 4560): 16 µg/mL (≈ 13.4 µM)
Streptococcus sp.; strain ATCC 6301
  MIC Streptococcus pneumoniae (ATCC 6301): 8 µg/mL (≈ 6.7 µM)
Streptococcus sp.; strain GC 1894
  MIC Streptococcus pneumoniae (GC 1894): 8 µg/mL (≈ 6.7 µM)
Streptococcus sp.; strain GC 4563
  MIC Streptococcus pyogenes (GC 4563): 2 µg/mL (≈ 1.67 µM)
Streptococcus sp.; strain GC 4564
  MIC Streptococcus agalactiae (GC 4564): 8 µg/mL (≈ 6.7 µM)
Streptococcus sp.; strain GC 4565
  MIC Streptococcus pneumoniae (GC 4565): 16 µg/mL (≈ 13.4 µM)
Enterococcus sp.; strain ATCC 29212
  MIC Enterococcus faecalis (ATCC 29212): 16 µg/mL (≈ 13.4 µM)
Enterococcus sp.; strain GC 2242
  MIC Enterococcus faecalis (GC 2242): 16 µg/mL (≈ 13.4 µM)
Enterococcus sp.; strain GC 2243
  MIC Enterococcus faecium (GC 2243): 8 µg/mL (≈ 6.7 µM)
Enterococcus sp.; strain GC 2691
  MIC Enterococcus faecalis (GC 2691): 16 µg/mL (≈ 13.4 µM)
Enterococcus sp.; strain GC 3059
  MIC Enterococcus faecalis (GC 3059): 32 µg/mL (≈ 26.8 µM)
Enterococcus sp.; strain GC 4552
  MIC Enterococcus faecalis (GC 4552): 32 µg/mL (≈ 26.8 µM)
Enterococcus sp.; strain GC 4553
  MIC Enterococcus faecalis (GC 4553): 8 µg/mL (≈ 6.7 µM)
Enterococcus sp.; strain GC 4554
  MIC Enterococcus faecalis (GC 4554): 32 µg/mL (≈ 26.8 µM)
Enterococcus sp.; strain GC 4556
  MIC Enterococcus faecium (GC 4556): 32 µg/mL (≈ 26.8 µM)
Enterococcus sp.; strain GC 4557
  MIC Enterococcus faecium (GC 4557): 4 µg/mL (≈ 3.35 µM)
Enterococcus sp.; strain GC 4558
  MIC Enterococcus avium (GC 4558): 8 µg/mL (≈ 6.7 µM)
Enterococcus sp.; strain GC 6189
  MIC Enterococcus faecalis (GC 6189): 16 µg/mL (≈ 13.4 µM)
Staphylococcus sp.; strain ATCC 29213
  MIC Staphylococcus aureus (ATCC 29213): 8 µg/mL (≈ 6.7 µM)
Staphylococcus sp.; strain GC 1131
  MIC Staphylococcus aureus (GC 1131): 8 µg/mL (≈ 6.7 µM)
Staphylococcus sp.; strain GC 3051
  MIC Staphylococcus aureus (GC 3051): 8 µg/mL (≈ 6.7 µM)
Staphylococcus sp.; strain GC 3053
  MIC Staphylococcus aureus (GC 3053): 8 µg/mL (≈ 6.7 µM)
Staphylococcus sp.; strain GC 4541
  MIC Staphylococcus aureus (GC 4541): 8 µg/mL (≈ 6.7 µM)
Staphylococcus sp.; strain GC 4542
  MIC Staphylococcus aureus (GC 4542): 8 µg/mL (≈ 6.7 µM)
Staphylococcus sp.; strain GC 4543
  MIC Staphylococcus aureus-SMITH (GC 4543): 8 µg/mL (≈ 6.7 µM)
Staphylococcus sp.; strain GC 4544
  MIC Staphylococcus aureus (GC 4544): 8 µg/mL (≈ 6.7 µM)
Staphylococcus sp.; strain GC 4545
  MIC Staphylococcus aureus (GC 4545): 8 µg/mL (≈ 6.7 µM)
Staphylococcus sp.; strain GC 4546
  MIC Staphylococcus haemolyticus (GC 4546): 8 µg/mL (≈ 6.7 µM)
Staphylococcus sp.; strain GC 4547
  MIC Coagulase Negative Staphylococcus (GC 4547): 8 µg/mL (≈ 6.7 µM)
Staphylococcus sp.; strain GC 4548
  MIC Coagulase Negative Staphylococcus (GC 4548): 8 µg/mL (≈ 6.7 µM)
Staphylococcus sp.; strain GC 4549
  MIC Coagulase Negative Staphylococcus (GC 4549): 8 µg/mL (≈ 6.7 µM)
Staphylococcus sp.; strain GC 4551
  MIC Coagulase Negative Staphylococcus (GC 4551): 8 µg/mL (≈ 6.7 µM)
Staphylococcus sp.; strain GC 6257
  MIC Coagulase Negative Staphylococcus (GC 6257): 2 µg/mL (≈ 1.67 µM)
